Where two headings read alike, the source gives them in different places.
Tested on: compound-treated mice
Experiment: Neuropharmacological assay (SmartCube): behavioral activity signature and minimal effective dose
Format: in vivo
Details: for minimal effective dose: Mus musculus, ip, MED = dose having 50% or more total activity; for AD: ADHD (probability of activity signature) / AG: analgesic (probability of activity signature) / AX: anxiolytic (probability of activity signature) / CE: cognitive enhancer (probability of activity signature) / DP: anti-depressant (probability of activity signature) / MS: mood stabilizer (probability of activity signature) / PS: anti-psychotic (probability of activity signature) / SD: sedative hypnotic (probability of activity signature) / UN: uncharacterized CNS activity (probability of activity signature): i.p. 15 min before test, most efficacious dose(s)
How it was run: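 Mice dosed i.p. 15 min before test, compound in N-methyl-2-pyrrolidone/PEG/propylene glycol, 3 doses; video-captured behavior matched to reference-drug signatures, giving per-class probabilities at most efficacious dose. MED from doses typically 0.3–30 mpk, defined as lowest dose with ≥50% total activity.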

[1] = read-out: Potency: minimal effective dose (MED), binned
[2] = read-out: Potency: minimal effective dose (MED)

Row | Structure (SMILES) | minimal effective dose [1] [mg/kg] | AD: ADHD (probability of activity signature) | AG: analgesic (probability of activity signature) | AX: anxiolytic (probability of activity signature) | CE: cognitive enhancer (probability of activity signature) | DP: anti-depressant (probability of activity signature) | MS: mood stabilizer (probability of activity signature) | PS: anti-psychotic (probability of activity signature) | SD: sedative hypnotic (probability of activity signature) | UN: uncharacterized CNS activity (probability of activity signature) | minimal effective dose [2] [mg/kg]
1 | CC(C)C[C@H]1OCc2ccccc2[C@@H]1N [Example 224] | 10 to 30 | + (LOQ ≤ + <5%) | ++ (5% ≤ ++ <25%) | ++ (5% ≤ ++ <25%) | +++ (25% ≤ +++ <50%) | + (LOQ ≤ + <5%) | + (LOQ ≤ + <5%) | + (LOQ ≤ + <5%) | ++ (5% ≤ ++ <25%) | ++ (5% ≤ ++ <25%) | 
2 | CNC1COCc2ccccc21.Cl (stereo not drawn) [Example 54, N-Methylisochroman-4-amine hydrochloride] |  | + (LOQ ≤ + <5%) | ++ (5% ≤ ++ <25%) | ++ (5% ≤ ++ <25%) | + (LOQ ≤ + <5%) | ++ (5% ≤ ++ <25%) | + (LOQ ≤ + <5%) | ++ (5% ≤ ++ <25%) | + (LOQ ≤ + <5%) | +++ (25% ≤ +++ <50%) | 10 to 30
3 | Cc1cccc2c1[C@@H](C)OC[C@H]2N (single isomer, unassigned) [Example 254] | 3 to 10 | + (LOQ ≤ + <5%) | + (LOQ ≤ + <5%) | + (LOQ ≤ + <5%) | + (LOQ ≤ + <5%) | + (LOQ ≤ + <5%) | + (LOQ ≤ + <5%) | + (LOQ ≤ + <5%) | ++ (5% ≤ ++ <25%) | ++ (5% ≤ ++ <25%) | 
4 | C[C@H]1OCc2ccc(Cl)c(Cl)c2[C@@H]1N.Cl [Example 92] |  | + (LOQ ≤ + <5%) | + (LOQ ≤ + <5%) | ++ (5% ≤ ++ <25%) | + (LOQ ≤ + <5%) | ++ (5% ≤ ++ <25%) | + (LOQ ≤ + <5%) | + (LOQ ≤ + <5%) | + (LOQ ≤ + <5%) | ++++ (50% ≤ ++++) | 10 to 30
5 | Cl.NC1COCc2c1ccc1ccccc21 (stereo not drawn) [Example 50, 3,4-Dihydro-1H-benzo[h]isochromen-4-amine hydrochloride] |  | + (LOQ ≤ + <5%) | ++ (5% ≤ ++ <25%) | ++ (5% ≤ ++ <25%) | ++ (5% ≤ ++ <25%) | +++ (25% ≤ +++ <50%) | + (LOQ ≤ + <5%) | ++ (5% ≤ ++ <25%) | + (LOQ ≤ + <5%) | ++ (5% ≤ ++ <25%) | 10 to 30
6 | C#CCN[C@H]1c2ccccc2CO[C@H]1C.Cl [Example 271] | 3 to 10 | ++ (5% ≤ ++ <25%) | + (LOQ ≤ + <5%) | ++ (5% ≤ ++ <25%) | + (LOQ ≤ + <5%) | ++ (5% ≤ ++ <25%) | +++ (25% ≤ +++ <50%) | + (LOQ ≤ + <5%) | ++ (5% ≤ ++ <25%) | ++ (5% ≤ ++ <25%) | 
7 | Cc1ccc2c(c1)C(N(C)C)CCOC2.Cl (stereo not drawn) [Example 62] |  | + (LOQ ≤ + <5%) | ++ (5% ≤ ++ <25%) | ++ (5% ≤ ++ <25%) | +++ (25% ≤ +++ <50%) | ++ (5% ≤ ++ <25%) | ++ (5% ≤ ++ <25%) | ++ (5% ≤ ++ <25%) | + (LOQ ≤ + <5%) | ++++ (50% ≤ ++++) | 3 to 10
8 | N[C@@H]1COCc2c(Cl)cccc21 [Example 131] |  | + (LOQ ≤ + <5%) | + (LOQ ≤ + <5%) | ++ (5% ≤ ++ <25%) | +++ (25% ≤ +++ <50%) | ++ (5% ≤ ++ <25%) | ++ (5% ≤ ++ <25%) | ++ (5% ≤ ++ <25%) | ++ (5% ≤ ++ <25%) | +++ (25% ≤ +++ <50%) | < 3
9 | CCc1ccc2c(c1)[C@H](N)[C@@H](C)OC2.Cl [Example 220] | 3 to 10 | + (LOQ ≤ + <5%) | ++ (5% ≤ ++ <25%) | ++++ (50% ≤ ++++) | ++ (5% ≤ ++ <25%) | + (LOQ ≤ + <5%) | + (LOQ ≤ + <5%) | + (LOQ ≤ + <5%) | + (LOQ ≤ + <5%) | ++++ (50% ≤ ++++) | 
10 | C[C@H]1OCc2ccc(F)cc2[C@@H]1N.Cl [Example 89] |  | + (LOQ ≤ + <5%) | ++ (5% ≤ ++ <25%) | ++ (5% ≤ ++ <25%) | ++ (5% ≤ ++ <25%) | + (LOQ ≤ + <5%) | + (LOQ ≤ + <5%) | ++ (5% ≤ ++ <25%) | ++ (5% ≤ ++ <25%) | ++++ (50% ≤ ++++) | < 3
11 | Cc1cc(C)c2c(c1)[C@@H](N)COC2 (single isomer, unassigned) [Example 126] |  | + (LOQ ≤ + <5%) | ++ (5% ≤ ++ <25%) | ++ (5% ≤ ++ <25%) | ++ (5% ≤ ++ <25%) | ++ (5% ≤ ++ <25%) | + (LOQ ≤ + <5%) | +++ (25% ≤ +++ <50%) | + (LOQ ≤ + <5%) | ++++ (50% ≤ ++++) | < 3
12 | CCC[C@@H]1OCc2ccccc2[C@@H]1N [Example 250] | 3 to 10 | ++ (5% ≤ ++ <25%) | + (LOQ ≤ + <5%) | ++ (5% ≤ ++ <25%) | + (LOQ ≤ + <5%) | + (LOQ ≤ + <5%) | ++ (5% ≤ ++ <25%) | ++ (5% ≤ ++ <25%) | ++ (5% ≤ ++ <25%) | + (LOQ ≤ + <5%) | 
